According to patent US9510593B2, “S-benzylthiouracil compounds and methods of enhancing plant root growth” (Valent BioSciences Corporation, priority 2014, dated 2016):
Entries after “also recorded” stand apart in the source; their conditions may differ. Like-named read-outs stand apart in the source and are kept apart here.

Tests used:
Format in all cases: in vivo
rice = experiment: Rice pouch assay: growth of primary root and shoot; settings: for change in vivo at 10 ppm: Oryza sativa, 144 h, read-out: Percent Change in Primary Root Length in Rice; for Effect on rice root growth, in words: rice pouch assay, compared to control; for Percent Change in Primary Root Length of Rice: linkage changes
Description: Seeds were placed in germination pouches consisting of germination paper as an insert in a gas-permeable 16×14 cm plastic pouch (CYG Pouch; Mega International, St. Paul, Minn.). In pouch solution evaluation, S-Benzylthiouracil compounds or their salts were dissolved in a small volume of DMSO and added to sterile water with a maximum of 0.5% v/v DMSO at final dilution. The S-Benzylthiouracil solution was subsequently pipetted into the growth pouch, followed by the addition of seeds of the crop being tested. The pouches were arranged in a randomized complete block design in growth racks and placed in 19-liter polycarbonate food storage containers (Rubbermaid Commercial Products, Winchester, Va.). The sealed containers were held in an upright growth cabinet maintained at 25 C with a 12 hour light: 12 hour dark photoperiod. For rice, plants were harvested at 6 d, while in mungbean and corn, the plants were harvested at 4 d post sowing. Measurements were performed on the primary root and shoot of each seedling. The growth of the primary root of rice was examined in the pouch assay system. The results of the testing, presented as percent change in root length across all S-Benzylthiouracil compounds, are shown below.

mungbean = experiment: Mungbean pouch assay: growth of primary root and shoot; settings: for change in vivo at 10 ppm: 96 h, read-out: Percent Change in Primary Root Length of Mungbean; for Effect on mungbean root (and shoot) growth, in words: mungbean pouch assay; for Shoot Length / Root Length: 4 days; for Shoot Length: control 4.9; for Root Length: control 6.1; for Percent Change in Primary Root Length: mungbean, linkage changes
Description: Seeds were placed in germination pouches consisting of germination paper as an insert in a gas-permeable 16×14 cm plastic pouch (CYG Pouch; Mega International, St. Paul, Minn.). In pouch solution evaluation, S-Benzylthiouracil compounds or their salts were dissolved in a small volume of DMSO and added to sterile water with a maximum of 0.5% v/v DMSO at final dilution. The S-Benzylthiouracil solution was subsequently pipetted into the growth pouch, followed by the addition of seeds of the crop being tested. The pouches were arranged in a randomized complete block design in growth racks and placed in 19-liter polycarbonate food storage containers (Rubbermaid Commercial Products, Winchester, Va.). The sealed containers were held in an upright growth cabinet maintained at 25 C with a 12 hour light: 12 hour dark photoperiod. For rice, plants were harvested at 6 d, while in mungbean and corn, the plants were harvested at 4 d post sowing. Measurements were performed on the primary root and shoot of each seedling. The growth of the primary root of mungbean was examined in the pouch assay system. The results of the testing, presented as percent change in root length across all the free S-Benzylthiouracil compounds is shown below. The following S-Benzylthiouracil compounds have benzyl substitutions as defined in Table 11 below.

tomato = experiment: Tomato petri plate assay; settings: for Shoot Length / Root Length: 6 days after sowing; for Shoot Length: control 3.3; for Root Length: control 3.5; for change in vivo at 10 ppm: Solanum lycopersicum, 144 h, after 6 days of continuous exposure, read-out: Percent Increase (percent change in primary tomato root length); for Effect on tomato root growth, in words: continuous exposure
Description: For tomato, the plants were grown in disposable (150 mm) sterile plastic petri plates (Falcon, BD Biosciences, Franklin Lakes, N.J.). In the tomato assay, a single sheet of Whatman #1 filter paper was placed at the bottom of the plate, 15 tomato seeds were added, and 10 mL of treatment solution was added. At the end of 6 d, the 10 largest seedlings were selected for measurement from each plate. In each study, a minimum of 3 replicate plates were used. In tomato, several S-Benzylthiouracil compounds were tested to determine the effects on root growth.

[1] = 10 mg/liter, 6 days after sowing, untreated control 10.50
[2] = 30 mg/liter, 6 days after sowing, untreated control 10.50
[3] = 10 ppm (10 mg/L), benzyl ring substitutions, vs control
[4] = 10 ppm (10 mg/L), benzyl ring substitutions
[5] = 10 ppm equivalent, 6 days after sowing, control 2.96
[6] = 10 ppm equivalent, 6 days after sowing, control 8.61
[7] = 10 ppm (10 mg/L), uracil moiety substitutions, vs control
[8] = 10 ppm (10 mg/L), uracil moiety substitutions

## [K+].[O-]c1ccnc(SCc2cccc(F)c2)n1 [Compound 1 K+ salt, Potassium Salt of S-(3-Fluorobenzyl)-2-thiouracil]
rice; 10 mg/liter, 6 days after sowing, untreated control 9.67
  Root Length: 11.03 cm
rice; 30 mg/liter, 6 days after sowing, untreated control 9.67
  Root Length: 9.71 cm

## [Na+].[O-]c1ccnc(SCc2ccccc2)n1 [Compound 2 Na+ salt, Sodium Salt of S-Benzyl-2-thiouracil]
rice; [1]
  Root Length: 12.35 cm
rice; [2]
  Root Length: 13.03 cm

## Oc1ccnc(SCc2ccccc2)n1 [Compound 2, 2-[(phenylmethyl)thio]-4(3H)-pyrimidinone]
rice; [1]
  Root Length: 12.44 cm
rice; [2]
  Root Length: 12.21 cm
rice; 1 ppm, 6 days after treatment, control 5.7
  Root Length: 6.7 cm
rice; 10 ppm, 6 days after treatment, control 5.7
  Root Length: 7.8 cm
rice; 10 ppm, compounds and water-soluble salts, 6 days after sowing
  Percent Change (rice primary root growth): 15.6%
rice; [3]
  change in vivo at 10 ppm: 15.6%
rice
  Effect on rice root growth, in words: increased the root length compared to the control treatment
mungbean; [4]
  Percent Change in Primary Root Length of Mungbean: 18.9%
  change in vivo at 10 ppm: 18.9%
tomato; 1 ppm
  Shoot Length: 3.3 cm
  Root Length: 3.8 cm
tomato; 10 ppm
  Shoot Length: 3.0 cm
  Root Length: 3.8 cm
  change in vivo at 10 ppm: 23%
tomato
  Effect on tomato root growth, in words: one of the most active compounds in tomato; also recorded: root length was increased in a dose-dependent fashion
tomato; listed as S-Benzylthiouracil
  Effect on tomato root growth, in words: active at promoting root growth

## Oc1ccnc(SCc2ccc(F)cc2)n1 [Compound 3]
rice; [5]
  Shoot Length: 2.59 cm
rice; [6]
  Root Length: 9.38 cm
rice; [3]
  change in vivo at 10 ppm: 13.9%
mungbean; [4]
  change in vivo at 10 ppm: 10.4%
tomato; 10 ppm
  change in vivo at 10 ppm: 2.8%

## Oc1ccnc(SCc2ccccc2F)n1 [Compound 4]
rice; [3]
  change in vivo at 10 ppm: 13.5%
mungbean; [4]
  change in vivo at 10 ppm: 17.7%

## Oc1ccnc(SCc2ccc(F)c(F)c2)n1 [Compound 5, S-(3,4-Difluorobenzyl)-2-thiouracil]
rice; [3]
  change in vivo at 10 ppm: 13.4%
mungbean; [4]
  change in vivo at 10 ppm: 17.6%
tomato; 10 ppm
  change in vivo at 10 ppm: 23.4%

## Oc1ccnc(SCc2cc(F)cc(F)c2)n1 [Compound 6, S-(3,5-Difluorobenzyl)-2-thiouracil]
rice; [3]
  change in vivo at 10 ppm: 8.8%
mungbean; [4]
  change in vivo at 10 ppm: 3%

## COc1cccc(CSc2nccc(O)n2)c1 [Compound 7]
rice; [3]
  change in vivo at 10 ppm: 2.5%
mungbean; [4]
  change in vivo at 10 ppm: 17.5%

## COc1ccc(CSc2nccc(O)n2)cc1 [Compound 8]
rice; [3]
  change in vivo at 10 ppm: 0.4%

## Cc1cccc(CSc2nccc(O)n2)c1 [Compound 9]
rice; [3]
  change in vivo at 10 ppm: -2.3%
mungbean; [4]
  change in vivo at 10 ppm: 5.9%

## Oc1cc(O)nc(SCc2ccccc2)n1 [Compound 10]
rice; [7]
  change in vivo at 10 ppm: 11.5%
mungbean; [8]
  change in vivo at 10 ppm: 5.9%
tomato; 10 ppm
  change in vivo at 10 ppm: 8.4%

## Oc1nccc(SCc2cccc(F)c2)n1 [Compound 11]
rice; [7]
  change in vivo at 10 ppm: 10.6%
mungbean; [8]
  change in vivo at 10 ppm: 8.9%
tomato; 10 ppm
  change in vivo at 10 ppm: -34.8%
tomato
  Effect on tomato root growth, in words: root growth inhibition

## CCOC(=O)c1cnc(SCc2cccc(F)c2)nc1O [Compound 12, S-(3-Fluorobenzyl)-5-carboxyethyl-2-thiouracil]
rice; [7]
  change in vivo at 10 ppm: 9.5%
mungbean; [8]
  change in vivo at 10 ppm: -20.1%
mungbean
  Effect on mungbean root (and shoot) growth, in words: significant negative effect on root growth

## Oc1nc(SCc2cccc(F)c2)nc2[nH]cnc12 [Compound 13]
rice; [7]
  change in vivo at 10 ppm: 8.7%
mungbean; [8]
  change in vivo at 10 ppm: 4.5%
tomato; 10 ppm
  change in vivo at 10 ppm: 0.8%
tomato
  Effect on tomato root growth, in words: root growth inhibition

## Cc1cc(O)nc(SCc2ccccc2C)n1 [Compound 14]
rice; [7]
  change in vivo at 10 ppm: 8.6%
mungbean; [8]
  change in vivo at 10 ppm: 15.4%

## Cc1cc(O)nc(SCc2ccccc2)n1 [Compound 15]
rice; [7]
  Percent Change in Primary Root Length in Rice: 7.6%
  change in vivo at 10 ppm: 7.6%
mungbean; 1 ppm
  Shoot Length: 5.6 cm
  Root Length: 6.9 cm
mungbean; 10 ppm
  Shoot Length: 5.0 cm
  Root Length: 8.5 cm
mungbean; [8]
  change in vivo at 10 ppm: 36.2%
mungbean
  Effect on mungbean root (and shoot) growth, in words: greatest increases in mungbean root growth; also recorded: both root and shoot showed significant increases in growth
tomato
  Effect on tomato root growth, in words: root growth inhibition

## Cc1cc(O)nc(SCc2c(Cl)cccc2Cl)n1 [Compound 16, S-(2,6-Dichlorobenzyl)-6-methyl-2-thiouracil]
rice; [5]
  Shoot Length: 2.71 cm
rice; [6]
  Root Length: 9.31 cm
rice; [7]
  change in vivo at 10 ppm: 5.5%
mungbean; [8]
  change in vivo at 10 ppm: 6.6%
tomato; 10 ppm
  change in vivo at 10 ppm: -7.2%

## Fc1cccc(CSc2ncccn2)c1 [Compound 17]
rice; [7]
  change in vivo at 10 ppm: 5.1%
mungbean; [8]
  change in vivo at 10 ppm: 11.1%

## Nc1ccnc(SCc2cccc(F)c2)n1 [Compound 19]
rice; [7]
  change in vivo at 10 ppm: 2.9%

## Cc1cc(O)nc(SCc2ccccc2Cl)n1 [Compound 20]
rice; 1 ppm, 6 days after planting, control 1.7
  Shoot Length: 1.4 cm
rice; 1 ppm, 6 days after planting, control 5.4
  Root Length: 5.3 cm
rice; 2 ppm, 6 days after planting, control 1.7
  Shoot Length: 1.3 cm
rice; 2 ppm, 6 days after planting, control 5.4
  Root Length: 4.7 cm
rice; 5 ppm, 6 days after planting, control 1.7
  Shoot Length: 1.2 cm
rice; 5 ppm, 6 days after planting, control 5.4
  Root Length: 4.6 cm
rice; 10 ppm, 6 days after planting, control 1.7
  Shoot Length: 0.9 cm
rice; 10 ppm, 6 days after planting, control 5.4
  Root Length: 3.8 cm
rice; [7]
  change in vivo at 10 ppm: -6.9%
rice
  Effect on rice root growth, in words: significantly negative effect; also recorded: dose-dependent reductions in root and shoot growth
mungbean; [8]
  change in vivo at 10 ppm: 8.2%

## Oc1ccnc(OCc2cccc(F)c2)n1 [Compound 21, 2-O-(3-fluorobenzyl)uracil]
rice; 10 ppm (10 mg/L), vs control
  Percent Change in Primary Root Length of Rice: 6.0%
mungbean; 10 ppm (10 mg/L)
  Percent Change in Primary Root Length: 9.1%

## Oc1ccnc(SCCc2ccccc2)n1 [Compound 22]
rice; 10 ppm (10 mg/L), vs control
  Percent Change in Primary Root Length of Rice: 5.3%
rice
  Effect on rice root growth, in words: modest enhancements in root growth
mungbean; 10 ppm (10 mg/L)
  Percent Change in Primary Root Length: 29.0%

## Oc1ccnc(SC/C=C/c2ccccc2)n1 [Compound 23]
rice; 10 ppm (10 mg/L), vs control
  Percent Change in Primary Root Length of Rice: 2.3%
rice
  Effect on rice root growth, in words: modest enhancements in root growth
tomato; 10 ppm
  change in vivo at 10 ppm: -15.7%

## Oc1ccnc(OCc2ccccc2)n1 [Compound 24, 2-O-Benzyluracil]
rice; 10 ppm (10 mg/L), vs control
  Percent Change in Primary Root Length of Rice: 2.2%
mungbean; 10 ppm (10 mg/L)
  Percent Change in Primary Root Length: −1.3%

## O=c1cc[nH]c(=O)[nH]1 [Uracil]
tomato; 10 ppm
  change in vivo at 10 ppm: -21%
